Earlier results in patent US20090214462A1, “COCKCROACH JELLY BAIT” (priority 2004, published 2009).

Test system: cockroaches
Settings: kill by intake; general statement

## CCOP(=S)(OCC)Oc1nc(Cl)c(Cl)cc1Cl [Chlorpyrifos]
  Time until cockroaches die after intake: 2 to 3 days

## OB(O)O [Boric acid]
  Time until cockroaches die after intake: one to eight
